In one test the target is T1, human α-thrombin (Homo sapiens, UniProt P00734).
T1 construct: residues in the termini of the light chain; purchased Chemo-Sero-Therapeutic Research Institute (Kaketsuken, Japan), as a gift, not bought
Description: Thrombin amidolytic activity assay with chromogenic substrate S2238. Type of test: biochemical. The settings on record: for Ki: various S2238 concentrations. On the procedure:
Thrombin amidolytic activity assays for all peptides were performed in 96-wells microtiter plates in 50 mM Tris buffer (pH 7.4) containing 100 mM NaCl and 1 mg/ml bovine serum albumin. […] The rates of formation of p-nitroaniline were followed by measuring the absorbance at 405 nm for 10 min with a Tecan InfinitePro M200 microplate reader from Tecan (Männedorf, Switzerland). Dose-response curves were fitted using the GraphPad Prizm software (San Diego, Calif., USA) to calculate IC50 values and Hill coefficients. To measure the inhibitory constants, different concentrations of S2238 were used and the residual velocities were determined using the Morrison's tight binding equation. Inhibition of thrombin fibrinogenolytic activity of peptides were tested by measuring absorbance at 650 nm using a Sunrise microplate reader from Tecan (Männedorf, Switzerland) as described previously [Koh C Y, et al., J Biol Chem 282: 29101-13 (2007)]. The selectivity of avathrin was examined against 13 serine proteases (FIG. 5). Effects of avathrin on the amidolytic activities of these serine proteases were determined using respective chromogenic substrates. […] Avathrin (150 μM) was incubated with thrombin (5 μM), in 50 mM Tris buffer (pH 7.4) containing 150 mM NaCl and 1 mg/ml BSA. After different incubation times, reactions were quenched with 1% TFA (pH 1.8) and loaded onto a Jupiter Proteo column (4 μm, 90 Å, 100×1.0 mm) attached to a Dionex nano-HPLC system from Thermo Fisher Scientific (Waltham, Mass., USA) and eluted using an acetonitrile gradient with 0.05% TFA and 99.95% MilliQ water as eluent A and 0.05% TFA, 19.95% MilliQ water and 80% ACN as eluent B. Masses of all peaks were measured to identify cleavage products, which were subsequently quantified by integrating the peaks and calculating the area under the curves. To measure the effect of different pre-incubation times on the thrombin inhibitory activity, amidolytic assays were performed for various incubation times (up to 36 h).

The subject of test [1] is platelets (ADP-induced platelet aggregation). Description: Preservation of platelet function in blood tubes (Multiplate, ADP-induced platelet aggregation). Type of test: cell-based, human (healthy volunteers). The settings on record: control tubes (0.109M citrate; >15 μg/ml hirudin), ADP agonist. Here is the method: Individual peptides are dissolved in phosphate buffered saline to prepare 10× peptide solutions (ie. concentrations of peptides are 10 times higher than the final concentrations at which they are to be tested). 0.3 ml of the 10× peptide solutions are placed in blood tubes without any additives. Blood was drawn from healthy volunteers using syringes and immediately transferred to a 50 ml conical centrifuge tube (Falcon tube) before pipetting 2.7 ml of the blood into blood tubes with peptide solutions. Final concentrations of peptides are as stated in Table 5 and 6.
Blood tubes with various peptides at different concentrations were left standing at room temperature until tested at designated times. At different time points, tubes were inverted several times and blood samples were taken out for platelet aggregation tests using a Multiplate® Platelet aggregometer with adenosine diphosphate (ADP) as agonist according to manufacturer's recommended protocols.

[2] abbreviates: IC50 of inhibition of thrombin amidolytic activity, thrombin 0.81 nM, S2238 100 μM, without pre-incubation (0 min) where stated.
The mark [3] stands for this setting: inhibitory constant Ki for thrombin, thrombin 0.81 nM.
[4] abbreviates: IC50 (nM), Table 4, members of variegin family.

Where two headings read alike, the source gives them in different places. Ends that are not written are not given here. Peptide text beside a SMILES is read from it.

In general, IC50 refers to the concentration that gives 50% inhibition. A word on the Ki: it is the equilibrium dissociation constant of an inhibitor or competing ligand from its target.

`CC[C@H](C)[C@H](NC(=O)[C@H](C)NC(=O)[C@H](CC(=O)O)NC(=O)[C@H](CC(=O)O)NC(=O)[C@@H]1CCCN1C(=O)[C@@H](NC(=O)[C@H](CCC(=O)O)NC(=O)[C@H](CCC(=O)O)NC(=O)[C@H](Cc1ccccc1)NC(=O)[C@H](CC(=O)O)NC(=O)CNC(=O)[C@@H]1CCCN1C(=O)[C@@H]1CCCN1C(=O)[C@H](C)NC(=O)[C@@H](NC(=O)[C@H](CCCCN)NC(=O)[C@H](Cc1c[nH]cn1)NC(=O)[C@H](CCSC)NC(=O)[C@H](CCCCN)NC(=O)[C@@H]1CCCN1C(=O)[C@H](CCC(=O)O)NC(=O)[C@H](C)NC(=O)[C@H](CCCNC(=N)N)NC(=O)[C@@H](NC(=O)[C@H](C)NC(=O)[C@H](CCC(=O)O)NC(=O)[C@H](CC(=O)O)NC(=O)[C@@H](N)CO)C(C)C)[C@@H](C)O)[C@@H](C)CC)C(=O)N[C@@H](CCC(=O)O)C(=O)N[C@@H](CCC(=O)O)C(=O)O` [UV004] (H-SDEAVRAEPKMHKTAPPGDFEEIPDDAIEE-OH) yielded an IC50 at human α-thrombin (setting [2]) of 0.46 ± 0.08 nM. At human α-thrombin (setting [3]), this molecule showed a Ki of 0.00455 ± 0.00037 nM.
As for `CC[C@H](C)[C@H](NC(=O)[C@H](C)NC(=O)[C@H](CCCNC(=N)N)NC(=O)[C@@H](NC(=O)[C@H](C)NC(=O)[C@H](CCC(=O)O)NC(=O)[C@H](CC(=O)O)NC(=O)[C@@H](N)CO)C(C)C)C(=O)N1CCC[C@H]1C(=O)N[C@@H](CCCCN)C(=O)N[C@@H](CCSC)C(=O)N[C@@H](Cc1ccc(O)cc1)C(=O)N[C@@H](CO)C(=O)N[C@H](C(=O)N[C@@H](C)C(=O)N1CCC[C@H]1C(=O)N1CCC[C@H]1C(=O)NCC(=O)N[C@@H](CC(=O)O)C(=O)N[C@@H](Cc1ccccc1)C(=O)N[C@@H](CCC(=O)O)C(=O)N[C@@H](CCC(=O)O)C(=O)N[C@H](C(=O)N1CCC[C@H]1C(=O)N[C@@H](CCC(=O)O)C(=O)N[C@@H](CCC(=O)O)C(=O)N[C@@H](Cc1ccc(O)cc1)C(=O)N[C@@H](CC(C)C)C(=O)N[C@@H](CC(=O)O)C(=O)N[C@@H](CC(=O)O)C(=O)N[C@@H](CCC(=O)O)C(=O)N[C@@H](CO)C(=O)O)[C@@H](C)CC)[C@@H](C)O` [UV005], the “fold drop in affinity for thrombin compared to ultravariegin” value at human α-thrombin is on record as “around 3.6 fold”. Further, at human α-thrombin (IC50 of inhibition of thrombin amidolytic activity, FIG. 17 legend), 0.91 ± 0.47 nM corresponded to half-maximal inhibition (IC50). This molecule also registered a Ki on human α-thrombin (setting [3]) of 0.016 ± 0.00305 nM.
In the case of `CC[C@H](C)[C@H](NC(=O)[C@H](C)NC(=O)[C@H](CC(=O)O)NC(=O)[C@H](CC(=O)O)NC(=O)[C@@H]1CCCN1C(=O)[C@@H](NC(=O)[C@H](CCC(=O)O)NC(=O)[C@H](CCC(=O)O)NC(=O)[C@H](Cc1ccccc1)NC(=O)[C@H](CC(=O)O)NC(=O)CNC(=O)[C@@H]1CCCN1C(=O)[C@@H]1CCCN1C(=O)[C@H](C)NC(=O)[C@@H](NC(=O)[C@H](CO)NC(=O)[C@H](Cc1ccc(O)cc1)NC(=O)[C@@H](N)CCSC)[C@@H](C)O)[C@@H](C)CC)C(=O)N[C@@H](CCC(=O)O)C(=O)N[C@@H](CCC(=O)O)C(=O)O` [UV011] (H-MYSTAPPGDFEEIPDDAIEE-OH), on human α-thrombin, the “fold better Ki than avathrin C-terminal cleavage product IS20” value is “around 4 fold” and the “fold better Ki than variegin C-terminal cleavage product MH22” value is on record as “around 10 fold”. The molecule further came in with an IC50 against human α-thrombin (setting [2]) of 1.66 ± 0.77 nM. Moreover, the Ki on human α-thrombin (setting [3]) stood at 1.39 ± 0.23 nM.
Consider `CC[C@H](C)[C@H](NC(=O)[C@H](CCC(=O)O)NC(=O)[C@H](CC(=O)O)NC(=O)[C@H](CC(=O)O)NC(=O)[C@@H]1CCCN1C(=O)[C@@H](NC(=O)[C@H](CCC(=O)O)NC(=O)[C@H](CCC(=O)O)NC(=O)[C@H](Cc1ccccc1)NC(=O)[C@H](CC(=O)O)NC(=O)CNC(=O)[C@@H]1CCCN1C(=O)[C@@H]1CCCN1C(=O)[C@H](C)NC(=O)[C@@H](NC(=O)[C@H](CO)NC(=O)[C@H](Cc1ccc(O)cc1)NC(=O)[C@H](CCSC)NC(=O)[C@H](CCCCN)NC(=O)[C@@H]1CCCN1C(=O)[C@@H](NC(=O)[C@H](C)NC(=O)[C@H](CCCNC(=N)N)NC(=O)[C@@H](NC(=O)[C@H](C)NC(=O)[C@H](CCC(=O)O)NC(=O)[C@H](CC(=O)O)NC(=O)[C@@H](N)CO)C(C)C)[C@@H](C)CC)[C@@H](C)O)[C@@H](C)CC)C(=O)N[C@@H](CCC(=O)O)C(=O)N[C@@H](CCC(=O)O)C(=O)O` [UV012] (H-SDEAVRAIPKMYSTAPPGDFEEIPDDEIEE-OH; N-terminus and C-terminus assumed), for which the “fold drop in affinity for thrombin compared to ultravariegin” value at human α-thrombin is 5 fold.
Take `O=C(O)CC(O)(CC(=O)O)C(=O)O` [citrate, reference compound]: the “Multiplate AUC (U)” value in test [1] (1.5 h) worked out at 37 U; in test [1] (4 h), 32.2 U; in test [1] (24 h), 12.9 U; in test [1] (48 h) it was 1.4 U; in test [1] (72 h), 0.7 U.
With “ELESGDEDSEGGDSQSSPTESAAPRLHQREGGGGDFENVEYDQDQK [Amblyomma maculatum]”, at human α-thrombin (setting [4]), the IC50 turned out to be 130 ± 1.74 nM.
Take “SDVAPADYESDEGDNDGGHDGSEVAKPKMPRGNGGGGDFEEIPEVE [Rhipicephalus sanguineus]”: at human α-thrombin (Table 4, members of variegin family, read-out: IC50), the IC50 came out at 42.4 ± 0.62 nM. In addition, the Ki on human α-thrombin (thrombin 0.81 nM, read-out: inhibitory constant Ki for thrombin) is 8.79 ± 0.65 nM.
“TGSDDDDEYDMYESDGDSNEGNDNDEFETAVPRLPNPNSGRDSEHIPMPVN [Hyalomma marginatum rufipes]”: the concentration for half-maximal inhibition (IC50) on human α-thrombin (setting [4]) amounted to 32.5 ± 3.94 nM. Further, at human α-thrombin (setting [3]), the inhibition constant (Ki) was found to be 6.13 ± 0.39 nM.
With hirudin [reference compound], the “Multiplate AUC (U)” value is reported as 69.5 U in test [1] (1.5 h); 50.2 U in test [1] (4 h); 36.2 U in test [1] (24 h); 29.1 U in test [1] (48 h); 26.9 U in test [1] (72 h).

The values above are taken from patent publication US10906946B2, “Thrombin inhibitors” (priority 2015, dated 2021).
